Results as given in ChEMBL document CHEMBL5331076, “Streptogramin A derivatives as mitochondrial translation inhibitors to suppress glioblastoma stem cell growth” (Eur J Med Chem, 2023).
Activity calls are given as the source filed them. No cut-off for these calls is given here.

Experiments:
COMI [1] = assay: Growth inhibition of human COMI cells incubated for 48 hrs in the presence of quinupristin by Hoechst 33342/PI staining based analysis; assay type: functional
COMI [2] = assay: Inhibition of mitochondrial translation in human COMI cells assessed as decrease in ND3 expression level incubated for 48 hrs by immunoblotting analysis; assay type: functional, cell-based
COMI [3] = assay: Inhibition of mitochondrial translation in human COMI cells assessed as decrease in COX1 expression level incubated for 48 hrs by immunoblotting analysis; assay type: functional, cell-based
COMI [4] = assay: Inhibition of mitochondrial translation in human COMI cells assessed as decrease in COX2 expression level incubated for 48 hrs by immunoblotting analysis; assay type: functional, cell-based
COMI [5] = assay: Inhibition of mitochondrial translation in human COMI cells assessed as increase in COX4 expression level incubated for 48 hrs by immunoblotting analysis; assay type: functional, cell-based
COMI [6] = assay: Growth inhibition of human COMI cells incubated for 48 hrs by Hoechst 33342/PI staining based analysis; assay type: functional
COMI [7] = assay: Inhibition of mitochondrial translation in human COMI cells assessed as decrease in ND3 expression level at 0.5 to 5 uM incubated for 48 hrs by immunoblotting analysis; assay type: functional, cell-based; conditions: dose 0.5-5 µM
COMI [8] = assay: Inhibition of mitochondrial translation in human COMI cells assessed as increase in COX4 expression level at 0.5 to 5 uM incubated for 48 hrs by immunoblotting analysis; assay type: functional, cell-based; conditions: dose 0.5-5 µM
COMI [9] = assay: Inhibition of mitochondrial translation in human COMI cells assessed as decrease in COX2 expression level at 0.5 to 5 uM incubated for 48 hrs by immunoblotting analysis; assay type: functional, cell-based; conditions: dose 0.5-5 µM
COMI [10] = assay: Inhibition of mitochondrial translation in human COMI cells assessed as decrease in COX1 expression level at 0.5 to 5 uM incubated for 48 hrs by immunoblotting analysis; assay type: functional, cell-based; conditions: dose 0.5-5 µM
COMI [11] = assay: Inhibition of mitochondrial translation in human COMI cells assessed as decrease in COX2 expression level at >25 uM incubated for 48 hrs by immunoblotting analysis; assay type: functional, cell-based
COMI [12] = assay: Inhibition of mitochondrial translation in human COMI cells assessed as decrease in ND3 expression level at >25 uM incubated for 48 hrs by immunoblotting analysis; assay type: functional, cell-based
COMI [13] = assay: Inhibition of mitochondrial translation in human COMI cells assessed as decrease in COX1 expression level at >25 uM incubated for 48 hrs by immunoblotting analysis; assay type: functional, cell-based
COMI [14] = assay: Inhibition of mitochondrial translation in human COMI cells assessed as increase in COX4 expression level at >25 uM incubated for 48 hrs by immunoblotting analysis; assay type: functional, cell-based

SMILES | GI50 (COMI [1]) | inhibition (COMI [2]) | inhibition (COMI [3]) | inhibition (COMI [4]) | inhibition (COMI [5]) | GI50 (COMI [6]) | inhibition (COMI [7]) | inhibition (COMI [8]) | inhibition (COMI [9]) | inhibition (COMI [10]) | inhibition (COMI [11]) | inhibition (COMI [12]) | inhibition (COMI [13]) | inhibition (COMI [14])
CCN(CC)CCS(=O)(=O)[C@@H]1CCN2C(=O)c3coc(n3)C[C@@H](F)C[C@H](O)/C=C(C)/C=C/CNC(=O)/C=C/[C@@H](C)[C@@H](C(C)C)OC(=O)[C@@H]12 | 8.37 µM | Active | Active | Active | Active | 20.5 µM | – | – | – | – | – | – | – | –
CCN(CC)CCS(=O)(=O)[C@@H]1CCN2C(=O)c3coc(n3)C[C@H](F)C[C@H](O)/C=C(C)/C=C/CNC(=O)/C=C/[C@@H](C)[C@@H](C(C)C)OC(=O)[C@@H]12 | 5.71 µM | – | – | – | – | 6.73 µM | Active | Active | Active | Active | – | – | – | –
CC1=C\C=C\C(=O)Cc2nc(co2)C(=O)N2CCC=C2C(=O)O[C@H](C(C)C)[C@H](C)/C=C/C(=O)NC\C=C\1 | 15.6 µM | – | – | – | – | 20.5 µM | – | – | – | – | – | – | – | –
CCN(CC)CCS(=O)(=O)[C@@H]1CCN2C(=O)c3coc(n3)C[C@@H](O)C[C@H](O)/C=C(C)/C=C/CNC(=O)/C=C/[C@@H](C)[C@@H](C(C)C)OC(=O)[C@@H]12 | 5.17 µM | Active | Active | Active | Active | 18.8 µM | – | – | – | – | – | – | – | –
CCN(CC)CCOC1CCN2C(=O)c3coc(n3)C[C@H](O)C[C@H](O)/C=C(C)/C=C/CNC(=O)/C=C/[C@@H](C)[C@@H](C(C)C)OC(=O)C12 (some centres not stated) | 14 µM | – | – | – | – | 85.3 µM | – | – | – | – | Active | Active | Active | Active
CC1=C\[C@@H](O)C[C@H](O)Cc2nc(co2)C(=O)N2CCC=C2C(=O)O[C@H](C(C)C)[C@H](C)/C=C/C(=O)NC\C=C\1 | 8.74 µM | Active | Active | Active | Active | 52.5 µM | – | – | – | – | – | – | – | –
CN[C@@H]1Cc2nc(co2)C(=O)N2CCC=C2C(=O)O[C@H](C(C)C)[C@H](C)/C=C/C(=O)NC/C=C/C(C)=C/[C@@H](O)C1 | 1.5 µM | – | – | – | – | 1.16 µM | inactive | inactive | inactive | inactive | – | – | – | –
CCN(CC)CCS(=O)(=O)[C@@H]1CCN2C(=O)c3coc(n3)C[C@H](NC)C[C@H](O)/C=C(C)/C=C/CNC(=O)/C=C/[C@@H](C)[C@@H](C(C)C)OC(=O)[C@@H]12 | 4.85 µM | – | – | – | – | 14.2 µM | inactive | inactive | inactive | inactive | – | – | – | –
CC1=C\[C@@H](O)C[C@@H](O)Cc2nc(co2)C(=O)N2CCC=C2C(=O)O[C@H](C(C)C)[C@H](C)/C=C/C(=O)NC\C=C\1 | 5.28 µM | Active | Active | Active | Active | 21.7 µM | – | – | – | – | – | – | – | –
CC1=C\[C@@H](O)C[C@H](F)Cc2nc(co2)C(=O)N2CCC=C2C(=O)O[C@H](C(C)C)[C@H](C)/C=C/C(=O)NC\C=C\1 | 12.3 µM | Active | Active | Active | Active | 36.1 µM | – | – | – | – | – | – | – | –
CCN(CC)CCS(=O)(=O)[C@@H]1CCN2C(=O)c3coc(n3)C[C@@H](NC)C[C@H](O)/C=C(C)/C=C/CNC(=O)/C=C/[C@@H](C)[C@@H](C(C)C)OC(=O)[C@@H]12 | 1.32 µM | – | – | – | – | 1.56 µM | inactive | inactive | inactive | inactive | – | – | – | –
CCN(CC)CCS(=O)(=O)[C@@H]1CCN2C(=O)c3coc(n3)CC(=O)C[C@H](O)C3C(C)=CC(CNC(=O)/C=C/[C@@H](C)[C@@H](C(C)C)OC(=O)[C@@H]12)C1C(=O)OC(=O)C13 (some centres not stated) | 14.8 µM | inactive | inactive | inactive | inactive | > 100 µM | – | – | – | – | – | – | – | –
CCN(CC)CCS(=O)(=O)[C@@H]1CCN2C(=O)c3coc(n3)CC(=O)/C=C/C=C(C)/C=C/CNC(=O)/C=C/[C@@H](C)[C@@H](C(C)C)OC(=O)[C@@H]12 | 9.9 µM | – | – | – | – | 10.9 µM | – | – | – | – | – | – | – | –
CCN(CC)CCNC1CCN2C(=O)c3coc(n3)C[C@H](O)C[C@H](O)/C=C(C)/C=C/CNC(=O)/C=C/[C@@H](C)[C@@H](C(C)C)OC(=O)C12 (some centres not stated) | 16.9 µM | – | – | – | – | > 100 µM | – | – | – | – | Active | Active | Active | Active
CCN(CC)CCS(=O)(=O)[C@@H]1CCN2C(=O)c3coc(n3)CC(=O)C[C@H](O)C3C(C)=CC(CNC(=O)/C=C/[C@@H](C)[C@@H](C(C)C)OC(=O)[C@@H]12)C1C(=O)NC(=O)C13 (some centres not stated) | 14.5 µM | inactive | inactive | inactive | inactive | > 100 µM | – | – | – | – | – | – | – | –
CC1=CC2CNC(=O)/C=C/[C@@H](C)[C@@H](C(C)C)OC(=O)C3=CCCN3C(=O)c3coc(n3)CC(=O)C[C@H](O)C1C1C(=O)OC(=O)C21 (some centres not stated) | 19.6 µM | inactive | inactive | inactive | inactive | > 100 µM | – | – | – | – | – | – | – | –
CC1=C\[C@@H](O)C[C@@H](F)Cc2nc(co2)C(=O)N2CCC[C@@H]2C(=O)O[C@H](C(C)C)[C@H](C)/C=C/C(=O)NC\C=C\1 | 5.83 µM | – | – | – | – | 7.37 µM | Active | Active | Active | Active | – | – | – | –
CCN(CC)CCS(=O)(=O)[C@@H]1CCN2C(=O)c3coc(n3)C[C@H](O)C[C@H](O)/C=C(C)/C=C/CNC(=O)/C=C/[C@@H](C)[C@@H](C(C)C)OC(=O)[C@@H]12 | 7.05 µM | Active | Active | Active | Active | 37.5 µM | – | – | – | – | – | – | – | –
CCN(CC)CCS[C@@H]1CCN2C(=O)c3coc(n3)CC(=O)C[C@H](O)/C=C(C)/C=C/CNC(=O)/C=C/[C@@H](C)[C@@H](C(C)C)OC(=O)[C@@H]12 | 8 µM | – | – | – | – | 7.02 µM | – | – | – | – | – | – | – | –
CC1=CC2CNC(=O)/C=C/[C@@H](C)[C@@H](C(C)C)OC(=O)C3=CCCN3C(=O)c3coc(n3)CC(=O)C[C@H](O)C1C1C(=O)NC(=O)C21 (some centres not stated) | 16.4 µM | inactive | inactive | inactive | inactive | > 100 µM | – | – | – | – | – | – | – | –
CC1=C\[C@@H](O)CC(=O)Cc2nc(co2)C(=O)N2CCC=C2C(=O)O[C@H](C(C)C)[C@H](C)/C=C/C(=O)NC\C=C\1 [VIRGINIAMYCIN FACTOR M1] | 7.25 µM | – | – | – | – | 17.1 µM | – | – | – | – | – | – | – | –
CN[C@H]1Cc2nc(co2)C(=O)N2CCC=C2C(=O)O[C@H](C(C)C)[C@H](C)/C=C/C(=O)NC/C=C/C(C)=C/[C@@H](O)C1 | 6.57 µM | – | – | – | – | 19.4 µM | inactive | inactive | inactive | inactive | – | – | – | –
CC1=C\[C@@H](O)C[C@@H](F)Cc2nc(co2)C(=O)N2CCC=C2C(=O)O[C@H](C(C)C)[C@H](C)/C=C/C(=O)NC\C=C\1 | 5.42 µM | – | – | – | – | 4.82 µM | Active | Active | Active | Active | – | – | – | –
